The subject of assay [1] is Sugen hypoxia model. Description: Rat Sugen hypoxia model of pulmonary arterial hypertension: mean pulmonary pressure. It is filed as in vivo. Particulars: SuHx, 50 mg/kg BID gavage Day 22 to Day 56. The procedure:
Animals from Groups 2 to 5 (see Table 10) receive a single subcutaneous injection of sugen (20 mg/kg in 2 mL/kg volume) solution (10 mg/mL) on Day 0 and returned to their cages. Animals from Group 1 receive one subcutaneous injection of DMSO at 2 mL/kg (vehicle for sugen) on Day 0 and returned to their respective cages.
Groups 2-5 are placed in cages for which the controlled air is adjusted to receive a FiO2 equivalent to 0.10 (10%) using a mixture of nitrogen and ambient air controlled by the ventilated cage system. They are kept under these hypoxic conditions for 21 days. While in hypoxia, cages are cleaned and changed once a week, exposing the animals to ambient oxygen levels for less than 10 minutes. They are exposed to ambient oxygen levels from Day 22 to Day 56. Group 1 animals remain in cages exposed to ambient oxygen (normoxic) levels for 56 days. The animals are observed on a daily basis for any changes in their behaviour and general health status.
Treatment with the compound A, sildenafil or vehicle is administered as of Day 22 (Groups 2-5) as scheduled and described in Table 10. The Groups 2-4 receives a single dose per day. The reference group 5 receives sildenafil twice a day. Food and water are given ad libitum. Daily observation of the behaviour and general health status of the animals is done. Weekly body weight is taken.
Surgical Instrumentation and Measurement of Hemodynamic and Functional Parameters in Efficacy Study Animals • 1. On the selected day of surgery, rats are anaesthetized with a mixture of 2 to 2.5% isoflurane USP (Abbot Laboratories, Montreal, Canada) in oxygen, and placed on a heating pad to maintain body temperature. • 2. Rats are tracheotomized and immediately ventilated by means of a positive-pressure rodent respirator set at ≈10 ml/kg body weight at a frequency of 65-70 strokes/min. • 3. Lead II ECG contact electrodes is placed on the rat to continuously monitor the ECG during the surgical procedure. • 4. A cannula connected to a pressure transducer is inserted into the left femoral artery to measure the arterial blood pressure. • 5. A cannula connected to a pressure transducer is inserted into the right atria through the right jugular vein to measure the right atria pressure. • 6. The heart is exposed through a sternotomy and a 20GA 1.16 in Insyte is introduced into the right ventricle and rapidly hooked up to a saline filled PE-50 catheter connected to a transducer. • 7. Following a few seconds of right ventricular pressure recording, the Insyte is further advanced into the pulmonary artery to allow PAP recording for an additional 60 seconds. • 8. Hemodynamic parameters are recorded continuously for the duration of the procedure or until loss of PAP signal. • 9. Following hemodynamic monitoring, chest cavity is further opened to expose the lung. The muscle over the trachea is dissected away to remove the lungs and heart. Harvested tissue is rinsed with PBS to remove any excess of blood before to be weighed. • 10. For the histology and casting of the lungs, the process is as follows; 1) eight (8) rats per group is reserved to assess the histology of the left lung and is therefore be treated as described in point 12 of this section 8.2; 2) Two (2) rats per group serve to enable quantitative characterization of the three-dimensional vascular structure of the left lung and therefore is treated as described in section 8.3 for casting of the left lung. • 11. For histology, the left lobe is inflated using a 10 mL syringe filled with fixative (10% NBF) with attached blunt tip needle (23 g). Needle tip is inserted into the trachea, held in place with tied suture while another syringe is tied to the pulmonary artery. The lung is inflated gently at physiological pressure (20-25 mmHg) until all lobes are fully, uniformly, and consistently expanded (not allowing fixative to ooze through lung surface). This provides optimal vascular and airway expansion without causing excessive tissue disruption. […]

Assay [2] deals with monocrotaline model of pulmonary arterial hypertension. The experiment in a line: Rat monocrotaline model of pulmonary arterial hypertension: mean pulmonary pressure. Particulars: female rat, MCT, 50 mg/kg BID gavage Day 7 to Day 28, n = 11. Type of assay: in vivo. As to the method: • 1. The experimental trace to be analyzed is opened in Clampfit. • 2. Right atria pressure is recorded for 1 minute • 3. PAP recorded continuously for at least 1 minute or until loss of signal, is used to extract the mean, diastolic, and systolic pulmonary pressure. • 4. The systemic arterial pressure (SAP) recorded continuously is used to extract the mean, diastolic and systolic arterial pressure. • 5. At the end of the hemodynamic parameters recording, the right and left ventricle including the septum and the lung lobes is excised to determine wet weights. • 6. Each parameter is compiled for each group and presented in bar graphs with appropriate statistical analysis.
The appropriate amount of monocrotaline is weighed and ⅓ of the correct volume of 1.0N HCl is added and mixed to ensure monocrotaline solubilisation. The solution is then neutralized with ⅓ of the correct volume of 1.0 N NaOH. The pH of the solution is checked with a pH indicator paper/strip or an electronic pH meter and adjusted to neutral as necessary; the final volume is completed with water for injection to obtain a solution of 20 mg/mL. The monocrotaline solution is injected subcutaneously, over the shoulders, into the loose skin over the neck, to each rat at 3 mL/kg of body weight (dose is 60 mg/kg).
Compound A was administered as a suspension in the vehicle. To reach the required concentrations, compound A was grounded to a fine powder, using a mortar and pestle, and then mixed with 20% (final volume) of vehicle A1 until a suspension was achieved. 80% of vehicle A2 was then added to the suspension under magnetic stirring.
The appropriate amount of Sildenafil is weighed and appropriate volume of distillated water is added to obtain suspension at 5 mg/mL. The suspension is mixed with a stir bar for 30-60 minutes until a homogenous suspension is achieved. Care is taken to maintain a uniform suspension (stirring continuously) whilst doses are being drawn up into gavage syringes. One gavage syringe is filled at a time and administered before filling the next syringe. The solutions are stored refrigerated at 2 to 8° C. and protected from light. The expiration date is set at 7 days after preparation.
Animals from Groups 2 to 5 (see Table 13) receive a single subcutaneous injection of monocrotaline (60 mg/kg) solution on Day 0 and returned to their cages. Animals from Group 1 receive one subcutaneous injection vehicle for MCT on Day 0 and returned to their respective cages.
Treatment with the compound A, sildenafil or vehicle is administered as of Day 7 (Groups 2-5) as scheduled and described in Table 13. The Groups 2-4 receive a single dose per day. The reference group 5 receives sildenafil twice a day. Food and water are given ad libitum. Daily observation of the behaviour and general health status of the animals is done. Weekly body weight is taken.
Surgical Instrumentation and Measurement of Hemodynamic and Functional Parameters in Efficacy Study Animals • 1. On the selected day of surgery, rats are anaesthetized with a mixture of 2 to 2.5% isoflurane USP (Abbot Laboratories, Montreal, Canada) in oxygen, and placed on a heating pad to maintain body temperature. • 2. Rats are tracheotomized and immediately ventilated by means of a positive-pressure rodent respirator set at ≈10 ml/kg bodyweight at a frequency of 65-70 strokes/min. • 3. Lead II ECG contact electrodes is placed on the rat to continuously monitor the ECG during the surgical procedure. • 4. A cannula connected to a pressure transducer is inserted into the left femoral artery to measure the arterial blood pressure. • 5. A cannula connected to a pressure transducer is inserted into the right atria through the right jugular vein to measure the right atria pressure. • 6. The heart is exposed through a sternotomy and a 20GA 1.16 in Insyte is introduced into the right ventricle and rapidly hooked up to a saline filled PE-50 catheter connected to a transducer. • 7. […]

Molecules are shown by their SMILES.

`CCCc1nn(C)c2c(=O)[nH]c(-c3cc(S(=O)(=O)N4CCN(C)CC4)ccc3OCC)nc12` [Sildenafil, reference compound]: the “Mean Pulmonary Pressure” value in assay [1] (female rats) was determined as 22.5 mmHg; in assay [1] (male rats), 30.1 mmHg; in assay [2] it was 18.9 mmHg.

The values are drawn from patent US11992499B2, “Quinoline derivatives for use in the treatment of inflammation diseases” (ABIVAX, priority 2018, dated 2024).
